The values that follow come from article PMC10424176, “Chamelogk: A Chromatographic Chameleonicity Quantifier to Design Orally Bioavailable Beyond-Rule-of-5 Drugs” (Journal of Medicinal Chemistry, 2023).

A short description of data set [1]: log kW^IAM and Δ log kW^IAM (IAM chromatography). Format: physicochemical. To be noted: for log kW^IAM: IAM column, extrapolated to 100% buffer from 10 to 50% MeCN, pH 7.0; for Δ log kW^IAM: polarity, from log kW^IAM and BRlogD (eq 4, 5). As to the method:
The mobile phases for every descriptor consisted of isocratic solutions of 20 mM ammonium acetate at pH 7.0 and acetonitrile at various percentages (see the specific descriptor). Small amounts of the 55 compounds were dissolved in buffer/acetonitrile mixtures (v/v) at concentrations ranging from 50 to 100 μg/mL. Subsequently, 10 μL of each solution (injection volume) was injected at an isocratic flow rate of 1 mL/min and analyzed at 30 °C (oven temperature). Chromatographic measurements were then analyzed in duplicate based on the specific chromatographic conditions of each descriptor. […] The retention times of the samples were recorded, and the capacity factor was calculated for each mobile phase condition adapting eq 2, where t0 is the retention time of citric acid.

Data set [2] in a line: Chamelogk, chromatographic chameleonicity descriptor (PLRP-S RP-HPLC). It counts as physicochemical. To be noted: Exp. minus Ext. log k' PLRP-S at 100% MeCN; linear fit at 50, 60, 70% MeCN; 20 mM ammonium acetate pH 7.0; 30 °C.
For data set [3] the following is noted: solubility range class; cited from earlier work.
The conditions of data set [4]: oral activity; cited from earlier work.
Data set [5] is described as follows: physchem. It counts as physicochemical. How it is done: The mobile phases for every descriptor consisted of isocratic solutions of 20 mM ammonium acetate at pH 7.0 and acetonitrile at various percentages (see the specific descriptor). Small amounts of the 55 compounds were dissolved in buffer/acetonitrile mixtures (v/v) at concentrations ranging from 50 to 100 μg/mL. Subsequently, 10 μL of each solution (injection volume) was injected at an isocratic flow rate of 1 mL/min and analyzed at 30 °C (oven temperature). Chromatographic measurements were then analyzed in duplicate based on the specific chromatographic conditions of each descriptor.
BRlogD[39] required the injection of 55 samples into the X-Bridge column at 60% MeCN (predominant mobile phase constituent). The retention times and dead time (t0, baseline interference) were recorded, and the capacity factor log k’60 was calculated adapting eq 2. Lastly, BRlogD value was calculated from eq 3 [drawing 3] 3

For data set [6] the following is noted: cited from earlier work.
The conditions of data set [7]: difference between maximum and minimum 3D-PSA among crystallized conformers; cited from earlier work.
Setting [8] is: XBridge column, 60% MeCN, pH 7.0, read-out: BRlogD.
Setting [9] is: XBridge Shield RP18 HPLC column, XBridge column, 60% MeCN, pH 7.0, read-out: BRlogD.

“Also recorded” adds a separate entry of the source. Read-outs that look alike come from different tables or passages of the source.

`Cc1sc2c(c1C)C(c1ccc(Cl)cc1)=N[C@@H](CC(=O)Nc1ccc(OCCOCCOCCOCCNc3cccc4c3C(=O)N(C3CCC(=O)NC3=O)C4=O)cc1)c1nnc(C)n1-2` (some centres unmarked) [ARV-825]: in data set [1], the “log kW^IAM” value is listed as 3.49 and the “Δ log kW^IAM” value was 1.31. Besides, in data set [2], the Chamelogk was 0.72. Also, in data set [3], the LogS result is “Low range”. For the same compound, the “Abs. Route” value in data set [4] was “orally active”. Moreover, the chromatographic logD in data set [5] (setting [8]) is 3.49.

Consider `Cc1ncsc1-c1ccc(CNC(=O)[C@@H]2C[C@@H](O)CN2C(=O)[C@@H](NC(=O)COCCOCCOCCNC(=O)C[C@@H]2N=C(c3ccc(Cl)cc3)c3c(sc(C)c3C)-n3c(C)nnc32)C(C)(C)C)cc1` [MZ1], for which, in data set [1], the “log kW^IAM” value was 2.83 and the “Δ log kW^IAM” value turned out to be 2.24. The compound further had a Chamelogk in data set [2] of 1.15. The LogS entry in data set [3] is “Int. range”. For the same compound, the “Abs. Route” value in data set [4] is reported as “not orally bioavailable; also recorded: Non-oral”. The chromatographic logD in data set [5] (pH 7) is 1.77.

On to `COC(=O)N[C@H](C(=O)N[C@@H](Cc1ccccc1)[C@@H](O)CN(Cc1ccc(-c2ccccn2)cc1)NC(=O)[C@@H](NC(=O)OC)C(C)(C)C)C(C)(C)C` [atazanavir], for which, in data set [1], the “log kW^IAM” value is listed as 2.74 and the “Δ log kW^IAM” value was 0.87. In addition, the Chamelogk in data set [2] is on record as 0.33. Also, the ChameLogD in data set [6] is listed as 1.6. For the same compound, the “X-Ray Δ 3D-PSA” value in data set [7] was 34. The chromatographic logD in data set [5] (setting [9]) was found to be 3.15.

Take `Cc1ncsc1-c1ccc(CNC(=O)[C@@H]2C[C@H](O)CN2C(=O)[C@@H](NC(=O)COCCOCCOCCNC(=O)C[C@@H]2N=C(c3ccc(Cl)cc3)c3c(sc(C)c3C)-n3c(C)nnc32)C(C)(C)C)cc1` [cisMZ1]: in data set [1], the “log kW^IAM” value is 2.90 and the “Δ log kW^IAM” value is on record as 2.20. Besides, in data set [2], the Chamelogk turned out to be 1.27. For the same compound, the LogS result in data set [3] is reported as “Int. range”. Moreover, the “Abs. Route” value in data set [4] was “Non-oral”. The same compound had a chromatographic logD in data set [5] (pH 7) of 1.87.

As to `CO[C@H]1C[C@@H]2CC[C@@H](C)[C@@](O)(O2)C(=O)C(=O)N2CCCC[C@H]2C(=O)O[C@H]([C@H](C)C[C@@H]2CC[C@@H](OCCO)[C@H](OC)C2)CC(=O)[C@H](C)/C=C(\C)[C@@H](O)[C@@H](OC)C(=O)[C@H](C)C[C@H](C)/C=C/C=C/C=C/1C` [everolimus], in data set [1], the “log kW^IAM” value is on record as 4.15 and the “Δ log kW^IAM” value is on record as 0.71. This compound came in with a Chamelogk in data set [2] of 0.45. Moreover, the ChameLogD in data set [6] was 1.7. Further, the chromatographic logD in data set [5] (pH 7) turned out to be 4.86.

With `Cc1c(O)cccc1C(=O)N[C@@H](CSc1ccccc1)[C@H](O)CN1C[C@H]2CCCC[C@H]2C[C@H]1C(=O)NC(C)(C)C` [nelfinavir], in data set [1], the “log kW^IAM” value is recorded as 2.69 and the “Δ log kW^IAM” value is reported as -0.63. This compound displayed a Chamelogk in data set [2] of 0.74. In data set [6], the ChameLogD is listed as 1.4. In data set [5] (setting [9]), the chromatographic logD was found to be 4.73. Also, in data set [5] (XBridge column, 60% MeCN, pH 7.0), the BRlogD entry is “below 5”.

For `CC(C)c1nc(CN(C)C(=O)N[C@H](C(=O)N[C@@H](Cc2ccccc2)C[C@H](O)[C@H](Cc2ccccc2)NC(=O)OCc2cncs2)C(C)C)cs1` [ritonavir], in data set [1], the “log kW^IAM” value was 3.02 and the “Δ log kW^IAM” value was 1.02. The same compound gave a Chamelogk in data set [2] of 0.67. Besides, the ChameLogD in data set [6] is 1.6. Also, the “X-Ray Δ 3D-PSA” value in data set [7] was 53. This compound also yielded a chromatographic logD in data set [5] (pH 7) of 3.29.

Turning to `CC(C)(C)NC(=O)[C@@H]1C[C@@H]2CCCC[C@@H]2CN1C[C@@H](O)[C@H](Cc1ccccc1)NC(=O)[C@H](CC(N)=O)NC(=O)c1ccc2ccccc2n1` [saquinavir], in data set [1], the “log kW^IAM” value was 3.44 and the “Δ log kW^IAM” value worked out at 1.85. The Chamelogk in data set [2] was determined as 1.23. For the same compound, the “X-Ray Δ 3D-PSA” value in data set [7] is given as 21. The compound also yielded a BRlogD in data set [5] (pH 7) of 2.85.

On to `CO[C@H]1C[C@@H]2CC[C@@H](C)[C@@](O)(O2)C(=O)C(=O)N2CCCC[C@H]2C(=O)O[C@H]([C@H](C)C[C@@H]2CC[C@@H](O)[C@H](OC)C2)CC(=O)[C@H](C)/C=C(\C)[C@@H](O)[C@@H](OC)C(=O)[C@H](C)C[C@H](C)/C=C/C=C/C=C/1C` [sirolimus], for which, in data set [1], the “log kW^IAM” value is given as 3.96 and the “Δ log kW^IAM” value came to 0.42. The Chamelogk in data set [2] is 0.25. Also, the ChameLogD in data set [6] is reported as 1.4. This compound also showed a chromatographic logD in data set [5] (pH 7) of 4.97.

For `CCC[C@H](NC(=O)[C@@H]1[C@H]2CCC[C@H]2CN1C(=O)[C@@H](NC(=O)[C@@H](NC(=O)c1cnccn1)C1CCCCC1)C(C)(C)C)C(=O)C(=O)NC1CC1` [telaprevir], in data set [1], the “log kW^IAM” value was 3.02 and the “Δ log kW^IAM” value was 0.75. The Chamelogk in data set [2] was found to be 0.31. The “X-Ray Δ 3D-PSA” value in data set [7] is given as 32. The chromatographic logD in data set [5] (setting [8]) came out at 3.6.
